Legend:
Assay in all cases: Serine Protease Inhibition Assay
Conditions in all cases: pH 7.8; 22 °C
[1] = biological target: Plasma kallikrein (Homo sapiens, UniProt P03952)
Description: (§1) The enzyme reactions were initiated by the addition of substrate, and the color developed from the release of p-nitroanilide from each chromogenic substrate was monitored continuously for 5 min at 405 nm on a microtiter plate reader. […] The apparent Ki values were then calculated according to the Cheng-Prusoff equation: Ki = IC50/1 + [S]/Km.

[2] = biological target: Urokinase-type plasminogen activator (Homo sapiens, UniProt P00749)
Description: as §1

[3] = biological target: Tissue-type plasminogen activator (Homo sapiens, UniProt P00750)
Chain of Tissue-type plasminogen activator (P00750 whole entry): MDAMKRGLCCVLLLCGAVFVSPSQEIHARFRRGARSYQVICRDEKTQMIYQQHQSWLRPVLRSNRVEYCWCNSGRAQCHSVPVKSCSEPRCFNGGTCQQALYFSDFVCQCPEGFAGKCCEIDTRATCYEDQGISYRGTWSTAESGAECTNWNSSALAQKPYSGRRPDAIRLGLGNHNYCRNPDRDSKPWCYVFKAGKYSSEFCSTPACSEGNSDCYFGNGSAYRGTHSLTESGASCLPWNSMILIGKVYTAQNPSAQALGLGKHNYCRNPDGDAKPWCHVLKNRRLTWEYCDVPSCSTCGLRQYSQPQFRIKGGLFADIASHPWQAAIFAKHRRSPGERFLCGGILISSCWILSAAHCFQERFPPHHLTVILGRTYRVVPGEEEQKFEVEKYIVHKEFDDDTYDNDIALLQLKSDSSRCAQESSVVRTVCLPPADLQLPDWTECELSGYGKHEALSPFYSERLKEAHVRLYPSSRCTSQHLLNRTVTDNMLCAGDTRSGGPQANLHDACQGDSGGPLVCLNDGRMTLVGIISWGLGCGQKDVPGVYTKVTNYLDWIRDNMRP
Description: as §1

[4] = biological target: Plasminogen (Homo sapiens, UniProt P00747)
Chain of Plasminogen (P00747 97-580 limits assumed): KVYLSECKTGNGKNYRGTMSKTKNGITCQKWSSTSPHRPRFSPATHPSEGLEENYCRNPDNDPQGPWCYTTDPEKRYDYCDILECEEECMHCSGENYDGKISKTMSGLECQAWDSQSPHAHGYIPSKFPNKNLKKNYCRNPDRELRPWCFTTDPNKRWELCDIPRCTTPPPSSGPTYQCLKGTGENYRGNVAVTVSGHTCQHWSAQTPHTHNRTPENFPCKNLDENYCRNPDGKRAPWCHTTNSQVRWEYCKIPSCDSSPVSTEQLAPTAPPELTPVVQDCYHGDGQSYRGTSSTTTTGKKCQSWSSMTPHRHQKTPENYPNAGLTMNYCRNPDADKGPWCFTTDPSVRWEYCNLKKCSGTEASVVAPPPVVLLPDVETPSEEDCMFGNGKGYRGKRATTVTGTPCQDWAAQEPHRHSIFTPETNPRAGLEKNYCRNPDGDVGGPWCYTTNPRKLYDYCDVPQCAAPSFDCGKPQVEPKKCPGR
Chain of Plasminogen (P00747 581-810 limits assumed): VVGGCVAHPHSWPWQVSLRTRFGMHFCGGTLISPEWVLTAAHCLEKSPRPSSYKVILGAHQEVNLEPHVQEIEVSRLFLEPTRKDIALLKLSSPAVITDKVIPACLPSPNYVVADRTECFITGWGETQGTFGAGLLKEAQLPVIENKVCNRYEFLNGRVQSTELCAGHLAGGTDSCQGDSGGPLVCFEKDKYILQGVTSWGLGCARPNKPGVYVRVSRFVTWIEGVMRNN
Description: as §1

[5] = biological target: Vitamin K-dependent protein C (Homo sapiens, UniProt P04070)
Chain of Vitamin K-dependent protein C (P04070 43-197 limits assumed): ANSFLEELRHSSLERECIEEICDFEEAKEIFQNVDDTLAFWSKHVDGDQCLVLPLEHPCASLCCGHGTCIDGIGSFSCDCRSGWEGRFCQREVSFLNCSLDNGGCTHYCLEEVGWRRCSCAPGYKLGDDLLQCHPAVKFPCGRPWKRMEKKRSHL
Chain of Vitamin K-dependent protein C (P04070 212-461 limits assumed): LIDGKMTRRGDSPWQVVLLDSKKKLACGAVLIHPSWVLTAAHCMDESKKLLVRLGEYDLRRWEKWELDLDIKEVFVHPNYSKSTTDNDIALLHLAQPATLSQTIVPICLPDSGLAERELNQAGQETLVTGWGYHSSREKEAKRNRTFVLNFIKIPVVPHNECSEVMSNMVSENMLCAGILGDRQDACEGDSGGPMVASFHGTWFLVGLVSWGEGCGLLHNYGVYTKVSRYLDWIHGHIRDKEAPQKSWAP
Description: as §1

[6] = biological target: Prothrombin (Homo sapiens, UniProt P00734)
Description: as §1

[7] = biological target: Coagulation factor X (Homo sapiens, UniProt P00742)
Chain of Coagulation factor X (P00742 41-179 limits assumed): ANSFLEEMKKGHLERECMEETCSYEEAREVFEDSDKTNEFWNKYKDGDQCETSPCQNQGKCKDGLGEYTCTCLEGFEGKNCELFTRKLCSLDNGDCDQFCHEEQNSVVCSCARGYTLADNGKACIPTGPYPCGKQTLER
Chain of Coagulation factor X (P00742 235-488 limits assumed): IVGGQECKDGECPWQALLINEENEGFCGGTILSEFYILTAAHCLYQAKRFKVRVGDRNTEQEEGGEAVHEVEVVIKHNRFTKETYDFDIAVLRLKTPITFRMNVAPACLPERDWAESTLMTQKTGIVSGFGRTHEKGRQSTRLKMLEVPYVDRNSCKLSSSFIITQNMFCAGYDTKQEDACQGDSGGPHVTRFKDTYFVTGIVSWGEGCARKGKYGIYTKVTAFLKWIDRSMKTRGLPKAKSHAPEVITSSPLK
Description: as §1

[8] = biological target: T1, Serine protease 1 (Bos taurus, UniProt P00760)
T1 sequence (P00760 whole entry): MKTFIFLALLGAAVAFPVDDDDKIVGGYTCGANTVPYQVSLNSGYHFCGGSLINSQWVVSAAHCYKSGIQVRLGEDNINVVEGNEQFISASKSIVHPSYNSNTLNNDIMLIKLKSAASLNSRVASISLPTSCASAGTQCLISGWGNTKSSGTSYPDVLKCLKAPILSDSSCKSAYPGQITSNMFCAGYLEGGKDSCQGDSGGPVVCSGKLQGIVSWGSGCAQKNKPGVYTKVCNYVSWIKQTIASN
Description: as §1

Chain of Plasma kallikrein (P03952 20-390 limits assumed): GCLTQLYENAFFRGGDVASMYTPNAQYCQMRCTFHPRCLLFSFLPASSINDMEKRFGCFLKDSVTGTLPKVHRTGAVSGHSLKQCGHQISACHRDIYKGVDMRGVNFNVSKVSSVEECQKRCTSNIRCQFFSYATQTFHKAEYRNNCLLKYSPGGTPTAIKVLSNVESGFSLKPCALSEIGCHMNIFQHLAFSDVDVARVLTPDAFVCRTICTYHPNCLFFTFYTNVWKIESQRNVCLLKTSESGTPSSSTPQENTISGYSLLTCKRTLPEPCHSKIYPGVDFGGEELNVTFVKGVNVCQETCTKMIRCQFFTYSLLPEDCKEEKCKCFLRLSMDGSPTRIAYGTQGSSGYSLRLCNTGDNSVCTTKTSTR
Chain of Plasma kallikrein (P03952 391-638 limits assumed): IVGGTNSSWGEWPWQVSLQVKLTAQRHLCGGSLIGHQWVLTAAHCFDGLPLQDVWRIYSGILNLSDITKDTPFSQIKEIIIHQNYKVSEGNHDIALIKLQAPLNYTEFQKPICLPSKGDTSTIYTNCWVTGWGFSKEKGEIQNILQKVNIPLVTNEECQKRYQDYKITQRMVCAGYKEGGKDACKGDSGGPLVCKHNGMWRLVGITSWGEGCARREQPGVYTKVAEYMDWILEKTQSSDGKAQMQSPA

CCOc1cc(OCC)c(F)c([C@@H](Nc2ccc(C(=N)N)c(O)c2)C(=O)NS(=O)(=O)c2cccc(N)c2)c1 [(2R)-N-[(3-aminobenzene)sulfonyl]-2-[(4-carbamimidoyl-3-hydroxyphenyl)amino]-2-(3,5-diethoxy-2-fluorophenyl)acetamide]
Ki [1]: 0.114 µM
Ki [2]: > 3.4 µM
Ki [3]: > 3.9 µM
Ki [4]: 1.2 µM
Ki [5]: 0.087 µM
Ki [6]: 3.6 µM
Ki [7]: > 3.5 µM
Ki [8]: 4 µM

From BindingDB's records for doi:10.1074/jbc.M409068200 (Genentech, 2005)
